Tests used:
TR-β = target: T1, TR-β (Homo sapiens, UniProt P10828); test: In vitro TR-β activity (in-house protocol); type: cell-based; conditions: for fold induction at 0.001 µM: Conc. 1 nM; for fold induction at 0.001 µM / fold induction at 0.01 µM / fold induction at 0.1 µM / fold induction at 1 µM: read-out: TR-β Fold Induction w.r.t T3(100 nm); for fold induction at 0.01 µM: Conc. 10 nM; for fold induction at 0.1 µM: Conc. 100 nM; for fold induction at 1 µM: Conc. 1000 nM
T1 sequence (P10828 1-461): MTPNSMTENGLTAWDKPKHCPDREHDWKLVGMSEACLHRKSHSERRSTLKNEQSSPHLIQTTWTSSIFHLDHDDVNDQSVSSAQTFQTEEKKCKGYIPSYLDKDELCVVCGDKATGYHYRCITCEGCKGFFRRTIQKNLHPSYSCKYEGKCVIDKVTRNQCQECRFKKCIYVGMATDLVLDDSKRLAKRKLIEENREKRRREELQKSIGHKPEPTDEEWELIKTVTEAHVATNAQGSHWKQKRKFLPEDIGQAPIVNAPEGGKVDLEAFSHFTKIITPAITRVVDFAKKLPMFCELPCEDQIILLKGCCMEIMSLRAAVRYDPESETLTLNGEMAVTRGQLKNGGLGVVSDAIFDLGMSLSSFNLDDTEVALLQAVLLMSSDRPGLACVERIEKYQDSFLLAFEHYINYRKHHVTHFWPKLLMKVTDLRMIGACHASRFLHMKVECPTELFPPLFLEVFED
Description: (§1) Invitro TR-α & TR-β activities were determined as per in-house protocols and the results of representative compounds are provided in tables 1 & 2 below as a proof of the efficacies of the novel class of compounds disclosed above.

TR-α = target: T2, TR-α (Homo sapiens, UniProt P10827); test: In vitro TR-α activity (in-house protocol); type: cell-based
T2 sequence (P10827 1-410 isoform P10827-2): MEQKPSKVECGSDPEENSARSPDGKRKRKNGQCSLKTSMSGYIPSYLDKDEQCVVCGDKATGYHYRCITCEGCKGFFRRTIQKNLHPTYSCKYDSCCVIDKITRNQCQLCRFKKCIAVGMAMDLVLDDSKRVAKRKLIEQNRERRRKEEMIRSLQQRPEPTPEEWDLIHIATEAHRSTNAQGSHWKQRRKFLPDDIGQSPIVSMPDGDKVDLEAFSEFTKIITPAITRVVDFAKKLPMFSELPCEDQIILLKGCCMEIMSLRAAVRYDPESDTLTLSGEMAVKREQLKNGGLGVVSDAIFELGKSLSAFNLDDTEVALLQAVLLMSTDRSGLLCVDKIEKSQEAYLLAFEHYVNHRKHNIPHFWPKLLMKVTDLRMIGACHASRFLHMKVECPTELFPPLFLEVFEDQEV
Description: as §1

fold induction at 0.001 µM (TR-β) | fold induction at 0.01 µM (TR-β) | fold induction at 0.1 µM (TR-β) | fold induction at 1 µM (TR-β) | TR-α Fold Induction w.r.t T3(100 nm) (TR-α; Conc. 1 nM) | TR-α Fold Induction w.r.t T3(100 nm) (TR-α; Conc. 10 nM) | TR-α Fold Induction w.r.t T3(100 nm) (TR-α; Conc. 100 nM) | TR-α Fold Induction w.r.t T3(100 nm) (TR-α; Conc. 1000 nM) | Structure (SMILES) | EC50 (TR-β) [nM] | EC50 (TR-α) [nM]
8.37 | 21.3 | 51.1 | 55.7 | 12.66 | 26.23 | 62.95 | 53.76 | CC(C)(C)c1cc(Oc2c(Cl)cc(N(CC(=O)O)CC(=O)O)cc2Cl)ccc1O [Example 34, {[4-(3-tert-Butyl-4-hydroxy-phenoxy)-3,5-dichloro-phenyl]-carboxymethyl-amino}-acetic acid] | – | –
10.4 | 20.9 | 45.4 | 46.1 | 8.97 | 14.71 | 25.77 | 33.47 | O=C(O)CN(CC(=O)O)c1cc(Cl)c(Oc2ccc(O)c(C(=O)c3ccc(Cl)cc3)c2)c(Cl)c1 [Example 28, (Carboxymethyl-{3,5-dichloro-4-[3-(4-chloro-benzoyl)-4-hydroxy-phenoxy]-phenyl}-amino)-acetic acid] | – | –
19.9 | 40.7 | 87.7 | 81.2 | 10.42 | 15.74 | 21.47 | 18.49 | CCOC(=O)N(CC(=O)O)c1cc(Cl)c(Oc2ccc(O)c(C(=O)c3ccc(Cl)cc3)c2)c(Cl)c1 [Example 20, ({3,5-Dichloro-4-[3-(4-chloro-benzoyl)-4-hydroxy-phenoxy]-phenyl}-ethoxycarbonyl-amino)-acetic acid] | – | –
20 | 40 | 100 | 75 | 10.00 | 20.00 | 50.00 | 70.00 | CCOC(=O)N(CC(=O)O)c1cc(Cl)c(Oc2ccc(O)c(C(=O)c3ccc(C(C)(C)C)cc3)c2)c(Cl)c1 [Example 24, ({4-[3-(4-tert-Butyl-benzoyl)-4-hydroxy-phenoxy]-3,5-dichloro-phenyl}-ethoxycarbonyl-amino)-acetic acid] | – | –

Continued, compound first:

Structure (SMILES) | fold induction at 0.001 µM (TR-β) | fold induction at 0.01 µM (TR-β) | fold induction at 0.1 µM (TR-β) | fold induction at 1 µM (TR-β) | TR-α Fold Induction w.r.t T3(100 nm) (TR-α; Conc. 1 nM) | TR-α Fold Induction w.r.t T3(100 nm) (TR-α; Conc. 10 nM) | TR-α Fold Induction w.r.t T3(100 nm) (TR-α; Conc. 100 nM) | TR-α Fold Induction w.r.t T3(100 nm) (TR-α; Conc. 1000 nM) | EC50 (TR-β) [nM] | EC50 (TR-α) [nM]
O=C(O)CN(C(=O)Oc1ccc(O)cc1)c1cc(Cl)c(Oc2ccc(O)c(S(=O)(=O)N3CCCCCC3)c2)c(Cl)c1 [Example 57, [{4-[3-(Azepane-1-sulfonyl)-4-hydroxy-phenoxy]-3,5-dichloro-phenyl}-(4-hydroxy-phenoxycarbonyl)-amino]-acetic acid] | 12.6 | 14.8 | 23.6 | 62.5 | 21.61 | 24.62 | 35.93 | 60.40 | – | –
CCOC(=O)N(CC(=O)O)c1cc(Cl)c(Oc2ccc(O)c(-c3ccccc3)c2)c(Cl)c1 [Example 14, {[3,5-Dichloro-4-(6-hydroxy-biphenyl-3-yloxy)-phenyl]-ethoxycarbonyl-amino}-acetic acid] | – | 16.4 | 58.5 | 77.3 | – | 11.10 | 36.30 | 45.90 | – | –
O=C(O)CN(C(=O)Oc1ccc(O)cc1)c1cc(Br)c(Oc2ccc(O)c(C(=O)c3ccc(Cl)cc3)c2)c(Br)c1 [Example 67, [{3,5-Dibromo-4-[3-(4-chloro-benzoyl)-4-hydroxy-phenoxy]-phenyl}-(4-hydroxy-phenoxycarbonyl)-amino]-acetic acid] | – | – | – | – | – | – | – | – | 12.8 | 49
CCC(C)c1cc(Oc2c(Cl)cc(N(CC(=O)O)CC(=O)O)cc2Cl)ccc1O (centres unmarked) [Example 26, {[4-(3-sec-Butyl-4-hydroxy-phenoxy)-3,5-dichloro-phenyl]-carboxymethyl-amino}-acetic acid] | – | – | – | – | – | – | – | – | 28.1 | 176
CCOC(=O)N(CC(=O)O)c1cc(C)c(Oc2ccc(O)c(C(C)CC)c2)c(C)c1 (centres unmarked) [Example 18, {[4-(3-sec-Butyl-4-hydroxy-phenoxy)-3,5-dimethyl-phenyl]-ethoxycarbonyl-amino}-acetic acid] | 9.44 | 18.6 | 23 | 42.6 | 6.62 | 8.90 | 12.97 | 16.87 | – | –
CCc1cc(Oc2c(Cl)cc(N(CC(=O)O)C(=O)Oc3ccc(O)cc3)cc2Cl)ccc1O [Example 48, [[3,5-Dichloro-4-(3-ethyl-4-hydroxy-phenoxy)-phenyl]-(4-hydroxy-phenoxycarbonyl)-amino]-acetic acid] | 9.02 | 19.4 | 47.7 | 37.6 | 08.16 | 17.51 | 34.61 | 45.08 | – | –
O=C(O)CN(C(=O)Oc1ccc(O)cc1)c1cc(Cl)c(Oc2ccc(O)c(-c3ccccc3)c2)c(Cl)c1 [Example 49, [[3,5-Dichloro-4-(6-hydroxy-biphenyl-3-yloxy)-phenyl]-(4-hydroxy-phenoxycarbonyl)-amino]-acetic acid] | – | – | – | – | – | – | – | – | 10.3 | 38
CC(C)c1cc(Oc2c(Cl)cc(N(CC(=O)O)C(=O)Oc3ccc(O)cc3)cc2Cl)ccc1O [Example 32, [[3,5-Dichloro-4-(4-hydroxy-3-isopropyl-phenoxy)-phenyl]-(4-hydroxy-phenoxycarbonyl)-amino]-acetic acid] | 24.7 | 73.7 | 119 | 94.9 | 23.36 | 74.20 | 87.50 | 72.37 | – | –
CN(C)S(=O)(=O)c1cc(Oc2c(Cl)cc(N(CC(=O)O)C(=O)Oc3ccc(O)cc3)cc2Cl)ccc1O [Example 38, [[3,5-Dichloro-4-(3-dimethylsulfamoyl-4-hydroxy-phenoxy)-phenyl]-(4-hydroxy-phenoxycarbonyl)-amino]-acetic acid] | 12.3 | 16.9 | 43.5 | 81.4 | 09.36 | 13.61 | 25.32 | 41.59 | – | –
CCOC(=O)N(CC(=O)O)c1cc(Cl)c(Oc2ccc(O)c(Cc3ccccc3)c2)c(Cl)c1 [Example 3, {[4-(3-Benzyl-4-hydroxy-phenoxy)-3,5-dichloro-phenyl]-ethoxycarbonyl-amino}-acetic acid] | – | – | – | – | – | – | – | – | 89 | 274

From patent US8420851B2, “Selective TR-β 1 agonist” (Cadila Healthcare Limited, priority 2006, dated 2013)
